Results from patent US20240139129A1, “NOVEL METHOD AND AGENT FOR TREATING, DIAGNOSING AND DETECTING DIABETES AND COMPLICATIONS” (Biozipcode, Inc., priority 2021, published 2024).

System: diabetic patients (type 1 and type 2 diabetes mellitus)
Experiment: Research Plan 2: therapy of diabetes mellitus targeting bone marrow-derived abnormal hematopoietic stem cell in patients
Assay type: in vivo, human
Settings: type 1 and type 2 diabetic patients, 12 weeks therapy

insulin: insulin therapy alone for three months (control group) in the human research plan
(A) effect of eliminating abnormal hematopoietic stem cells: not eliminated
(B) effect of healing diabetes mellitus: not observed
(C) therapeutic effect on a complication: observed to some extent
